Data published in ChEMBL document CHEMBL3046624, “Synthesis, single crystal X-ray studies and antimicrobial activities of novel Indole barbiturates” (Med Chem Res, 2012).
Activity calls are given as the source filed them. The rule behind the calls is not given here.

What was measured:
Type in all cases: functional, organism-based
Bacillus subtilis [1] = assay: Growth inhibition of Bacillus subtilis at 100 ug/ml by cup plate method
Staphylococcus aureus [2] = assay: Growth inhibition of Staphylococcus aureus at 300 ug/ml by cup-plate method
Pseudomonas aeruginosa [3] = assay: Growth inhibition of Pseudomonas aeruginosa at 200 ug/ml by cup-plate method
Candida albicans [4] = assay: Growth inhibition of Candida albicans at 200 ug/ml by cup-plate method
Saccharomyces cerevisiae [5] = assay: Growth inhibition of Saccharomyces cerevisiae at 200 ug/ml by cup-plate method
Staphylococcus aureus [6] = assay: Growth inhibition of Staphylococcus aureus at 100 ug/ml by cup-plate method
Bacillus subtilis [7] = assay: Growth inhibition of Bacillus subtilis at 200 ug/ml by cup plate method
Candida albicans [8] = assay: Growth inhibition of Candida albicans at 300 ug/ml by cup-plate method
Saccharomyces cerevisiae [9] = assay: Growth inhibition of Saccharomyces cerevisiae at 300 ug/ml by cup-plate method
Escherichia coli [10] = assay: Growth inhibition of Escherichia coli at 300 ug/ml by cup-plate method
Bacillus subtilis [11] = assay: Growth inhibition of Bacillus subtilis at 300 ug/ml by cup plate method
Saccharomyces cerevisiae [12] = assay: Growth inhibition of Saccharomyces cerevisiae at 100 ug/ml by cup-plate method
Escherichia coli [13] = assay: Growth inhibition of Escherichia coli at 200 ug/ml by cup-plate method
Pseudomonas aeruginosa [14] = assay: Growth inhibition of Pseudomonas aeruginosa at 100 ug/ml by cup-plate method
Proteus vulgaris [15] = assay: Growth inhibition of Proteus vulgaris at 100 ug/ml by cup-plate method
Proteus vulgaris [16] = assay: Growth inhibition of Proteus vulgaris at 300 ug/ml by cup-plate method
Pseudomonas aeruginosa [17] = assay: Growth inhibition of Pseudomonas aeruginosa at 300 ug/ml by cup-plate method
Staphylococcus aureus [18] = assay: Growth inhibition of Staphylococcus aureus at 200 ug/ml by cup-plate method
Proteus vulgaris [19] = assay: Growth inhibition of Proteus vulgaris at 200 ug/ml by cup-plate method
Escherichia coli [20] = assay: Growth inhibition of Escherichia coli at 100 ug/ml by cup-plate method
Candida albicans [21] = assay: Growth inhibition of Candida albicans at 100 ug/ml by cup-plate method

| Structure (SMILES) | growth inhibition (GI) (Bacillus subtilis [1]) | growth inhibition (GI) (Staphylococcus aureus [2]) | growth inhibition (GI) (Pseudomonas aeruginosa [3]) | growth inhibition (GI) (Candida albicans [4]) | growth inhibition (GI) (Saccharomyces cerevisiae [5]) | growth inhibition (GI) (Staphylococcus aureus [6]) | growth inhibition (GI) (Bacillus subtilis [7]) | growth inhibition (GI) (Candida albicans [8]) | growth inhibition (GI) (Saccharomyces cerevisiae [9]) | growth inhibition (GI) (Escherichia coli [10]) | growth inhibition (GI) (Bacillus subtilis [11]) | growth inhibition (GI) (Saccharomyces cerevisiae [12]) | growth inhibition (GI) (Escherichia coli [13]) | growth inhibition (GI) (Pseudomonas aeruginosa [14]) | growth inhibition (GI) (Proteus vulgaris [15]) | growth inhibition (GI) (Proteus vulgaris [16]) | growth inhibition (GI) (Pseudomonas aeruginosa [17]) | growth inhibition (GI) (Staphylococcus aureus [18]) | growth inhibition (GI) (Proteus vulgaris [19]) | growth inhibition (GI) (Candida albicans [21]) | other results |
| --- | --- | --- | --- | --- | --- | --- | --- | --- | --- | --- | --- | --- | --- | --- | --- | --- | --- | --- | --- | --- | --- |
| O=C1NC(=O)C(=Cc2c(-c3ccccc3)n(CC(=O)c3ccc(-c4ccccc4)cc3)c3ccccc23)C(=O)N1 | Active | Active | inactive | inactive | Active | Active | Active | inactive | Active | Active | Active | Active | Active | inactive | inactive | Active | Active | Active | Active | inactive | growth inhibition (GI) (Escherichia coli [20]): Active |
| CC1(C)S[C@@H]2[C@H](NC(=O)[C@H](N)c3ccccc3)C(=O)N2[C@H]1C(=O)O | Active | Active | Active | inactive | – | Active | Active | inactive | – | Active | Active | – | Active | Active | Active | Active | Active | Active | Active | inactive | growth inhibition (GI) (Escherichia coli [20]): Active |
| CCn1c(-c2ccccc2)c(C=C2C(=O)NC(=O)NC2=O)c2ccccc21 | inactive | inactive | Active | Active | Active | inactive | inactive | Active | Active | inactive | Active | Active | inactive | Active | inactive | inactive | Active | inactive | inactive | Active | growth inhibition (GI) (Escherichia coli [20]): inactive |
| CC(=O)N1CCN(c2ccc(OCC3COC(Cn4ccnc4)(c4ccc(Cl)cc4Cl)O3)cc2)CC1 (configuration not stated) | – | – | – | Active | Active | – | – | Active | Active | – | – | Active | – | – | – | – | – | – | – | Active | – |
| O=C1NC(=O)C(=Cc2c(-c3ccccc3)n(CC(=O)c3ccc(Br)cc3)c3ccccc23)C(=O)N1 | Active | Active | Active | Active | Active | Active | Active | Active | Active | Active | Active | Active | Active | Active | Active | Active | Active | Active | Active | Active | growth inhibition (GI) (Escherichia coli [20]): Active |
| C=CCn1c(-c2ccccc2)c(C=C2C(=O)NC(=O)NC2=O)c2ccccc21 | Active | Active | Active | Active | Active | Active | Active | Active | Active | Active | Active | Active | Active | Active | Active | Active | Active | Active | Active | Active | growth inhibition (GI) (Escherichia coli [20]): Active |
| CCCCn1c(-c2ccccc2)c(C=C2C(=O)NC(=O)NC2=O)c2ccccc21 | Active | Active | inactive | Active | inactive | Active | Active | Active | inactive | Active | Active | inactive | Active | inactive | Active | Active | inactive | Active | Active | Active | growth inhibition (GI) (Escherichia coli [20]): Active |
| O=C1NC(=O)C(=Cc2c(-c3ccccc3)n(CC(=O)c3ccccc3)c3ccccc23)C(=O)N1 | inactive | inactive | Active | inactive | Active | inactive | inactive | inactive | Active | inactive | inactive | Active | inactive | Active | Active | Active | Active | inactive | inactive | inactive | growth inhibition (GI) (Escherichia coli [20]): inactive |
| COc1ccc(C(=O)Cn2c(-c3ccccc3)c(C=C3C(=O)NC(=O)NC3=O)c3ccccc32)cc1 | inactive | inactive | Active | Active | inactive | inactive | inactive | Active | Active | inactive | Active | inactive | inactive | Active | Active | Active | Active | inactive | Active | Active | growth inhibition (GI) (Escherichia coli [20]): inactive |
| O=C1NC(=O)C(=Cc2c(-c3ccccc3)n(CC(=O)c3ccc(Cl)cc3)c3ccccc23)C(=O)N1 | Active | Active | Active | Active | Active | Active | Active | Active | Active | Active | Active | Active | Active | Active | Active | Active | Active | Active | Active | Active | growth inhibition (GI) (Escherichia coli [20]): Active |
